Tests used:
P. aeruginosa H188 = format: cell-based, Pseudomonas aeruginosa; conditions: H188
Source text: (§1) The following bacterial strains were utilized: Escherichia coli UB1005 (wt) and its antibiotic supersusceptible derivative DC2 (Clark, 1984); Excherichia coli SC9251 and its polymixin B rasistant mutant pmrA SC9252 (Peterson, et al., 1987) Pseudomonas aeruginosa H187 (wt) (Angus, et al., 1987) and its antibiotic-sensitive derivative H188 (Zimmerman, W, Antimicrob. Agents Chemother. 18: 94-100, 1980); methicillin sensitive Staphylococcus aureus K147 (Kreiswirth, et al., 1983); Staphylococcus aureus SAP0017, a methicillin resistant clinical isolate from Dr. A. Chow (University of British Columia); Bacillus subtilis, an environmental wt lab strain. Enterococcus faecalis are ATCC 29212 cells and Staphylococcus epidermidis was a clinical isolate from Dr. D. Speert (University of British Columbia). Antifungal activity was tested using a clinical lab isolate of Candida albicans. Salmonella typhinurium C57 and C610 (Fields, P.I., et al., Science 243: 1059-1062 (1989) Corynebacterium xerosis was an environmental isolate (University of British Columbia).
(§2) It is now apparent that agar-based assays severely underestimate antifungal activity as well as activity against gram negative microorganisms (Kondejewski, et al., 1996). Consequently, in the studies reported herein, a liquid-broth method was used to measure the antibiotic properties of the peptides. […] Briefly, cells were grown overnight at 37° C. in LB and diluted in the same medium. Serial dilutions of antibiotics were added to the microtitre plates in a volume of 100 μL followed by 10 μL of bacteria to give a final inoculum of 5×10^5 CFU/mL. Plates were incubated at 37° C. overnight and MICs determined as the lowest antibiotic concentration that inhibited growth. […]

E. coli UB1005 = format: cell-based, Escherichia coli; conditions: UB1005
Source text: as §1, §2

C. Albicans = format: cell-based, Candida albicans
Source text: as §1, §2

S. typhinurium C587 = format: cell-based, Salmonella typhinurium
Source text: as §1, §2

S. typhinurium C610 = format: cell-based, Salmonella typhinurium
Source text: as §1, §2

[1] = Displacement of dansyl-polymyxin from LPS; format: binding, P. aeruginosa; conditions: read-out: LPS binding affinity: peptide concentration to displace 50% of dansyl-polymyxin B from LPS; Tables 1, 4, 7
Source text: In order to determine whether ring size affects the interaction between the peptide and bacterial membranes, we studied the interaction between the GS ring analogs and bacterial lipopolysaccharide (LPS). It has been shown previously that dansyl-polymixin (DPX) is a good probe for cationic binding sites on both purified LPS as well as whole bacterial cells (Example 8; Moore, et al., 1986; Sawyer, et al., 1988; Hancock, 1981). […] The LPS binding activity of various GS analogs was investigated, as discussed above.
Dansyl-polymixin (DPX) displacement from P. aeruginosa LPS was measured as described (Moore, et al., 1986). Briefly, peptides were titrated into cuvettes containing 3 μg of LPS per mL and 2.5 μM dansyl-polymixin (approximately 90% saturation of LPS binding sites) in 1 mL of 5 mM sodium HEPES buffer, pH 7.0, and the decrease in fluorescence recorded. A plot of the inverse of the percent inhibition as a function of the inverse of inhibitor concentration gave a value for I50, the inhibitor concentration resulting in 50% displacement of dansyl-polymixin from LPS (−1/× intercept).

E. coli DC2 = format: cell-based, Escherichia coli; conditions: DC2
Source text: as §1
(§3) It is now apparent that agar-based assays severely underestimate antifungal activity as well as activity against gram negative microorganisms (Kondejewski, et al., 1996). Consequently, in the studies reported herein, a liquid-broth method was used to measure the antibiotic properties of the peptides. […] Briefly, cells were grown overnight at 37° C. in LB and diluted in the same medium. Serial dilutions of antibiotics were added to the microtitre plates in a volume of 100 μL followed by 10 μL of bacteria to give a final inoculum of 5×10^5 CFU/mL. Plates were incubated at 37° C. overnight and MICs determined as the lowest antibiotic concentration that inhibited growth.
(§4) The results from antimicrobial and hemolytic assays are combined to provide a “Therapeutic Index” (TI) for each peptide with respect to individual microorganisms. As reported herein, the TI is calculated as the hemolytic activity divided by the antimicrobial activity. The TI thus is a measure of specificity of the particular peptide for microbial membranes as opposed to human blood cell membranes. In the present studies, antimicrobial activities are reported as minimum inhibitory concentrations (MIC)—the lowest concentration of peptide (μg/ml) found to inhibit growth of the particular microbe. Hemolytic activity is reported as the concentration of peptide that effected complete lysis of blood cells after four hours. Thus, in the context of the present invention high TI values indicate microbial specificity and relative lack of toxicity.

S. epidermidis = format: cell-based, Staphylococcus epidermidis
Source text: as §1, §2

P. aeruginosa H187 = format: cell-based, Pseudomonas aeruginosa; conditions: H187
Source text: as §1, §3, §4

C. xeroses = format: cell-based, Corynebacterium xerosis
Source text: as §1, §2

S. aureus K147 = format: cell-based, Staphylococcus aureus
Source text: as §1, §3, §4

S. aureus SAP0017 = format: cell-based, Staphylococcus aureus
Source text: as §1, §3, §4

E. faecalis = format: cell-based, Enterococcus faecalis
Source text: as §1, §2

B. subtilis = format: cell-based, Bacillus subtilis
Source text: as §1, §2

| Compound | Minimum Inhibitory Concentration (activity) (P. aeruginosa H188) | Minimum Inhibitory Concentration (activity) (E. coli UB1005) | Minimum Inhibitory Concentration (activity) (C. Albicans) | Minimum Inhibitory Concentration (activity) (S. typhinurium C587) | Minimum Inhibitory Concentration (activity) (S. typhinurium C610) | IC50 [1] | Minimum Inhibitory Concentration (activity) (E. coli DC2) | Minimum Inhibitory Concentration (activity) (S. epidermidis) | Minimum Inhibitory Concentration (activity) (P. aeruginosa H187) | Minimum Inhibitory Concentration (activity) (C. xeroses) | Minimum Inhibitory Concentration (activity) (S. aureus K147) | Minimum Inhibitory Concentration (activity) (S. aureus SAP0017) | Minimum Inhibitory Concentration (activity) (E. faecalis) | Minimum Inhibitory Concentration (activity) (B. subtilis) |
| --- | --- | --- | --- | --- | --- | --- | --- | --- | --- | --- | --- | --- | --- | --- |
| CC(C)C[C@@H]1NC(=O)[C@H](CCCCN)NC(=O)[C@H](C(C)C)NC(=O)[C@@H]2CCCN2C(=O)[C@@H](Cc2ccc(O)cc2)NC(=O)[C@H](CC(C)C)NC(=O)[C@H](CCCCN)NC(=O)[C@@H](C(C)C)NC(=O)[C@H](CCCCN)NC(=O)[C@H](CC(C)C)NC(=O)[C@@H]2CCCN2C(=O)[C@@H](Cc2ccc(O)cc2)NC(=O)[C@H](C(C)C)NC(=O)[C@H](CCCCN)NC1=O [GS14V10] | 200 µg/mL | 200 µg/mL | 17 µg/mL | >200 µg/mL | 200 µg/mL | 18 µM | 3.1 µg/mL | 3.1 µg/mL | >200 µg/mL | 0.8 µg/mL | 200 µg/mL | 50 µg/mL | 1.5 µg/mL |  |
| CC(C)C[C@@H]1NC(=O)[C@H](CCCCN)NC(=O)[C@H](C(C)C)NC(=O)[C@@H]2CCCN2C(=O)[C@@H](Cc2ccc(O)cc2)NC(=O)[C@H](CC(C)C)NC(=O)[C@@H](CCCCN)NC(=O)[C@H](C(C)C)NC(=O)[C@H](CCCCN)NC(=O)[C@H](CC(C)C)NC(=O)[C@@H]2CCCN2C(=O)[C@@H](Cc2ccc(O)cc2)NC(=O)[C@H](C(C)C)NC(=O)[C@H](CCCCN)NC1=O [GS14K11] | 5 µg/mL | 6.2 µg/mL | 6.2 µg/mL |  | 6.2 µg/mL | 50 µM | 3.1 µg/mL | 3.1 µg/mL | 37 µg/mL | 0.8 µg/mL | 25 µg/mL | 25 µg/mL | 1.5 µg/mL | 25 µg/mL |
| CC(C)C[C@@H]1NC(=O)[C@H](CCCCN)NC(=O)[C@H](C(C)C)NC(=O)[C@@H]2CCCN2C(=O)[C@@H](Cc2ccc(O)cc2)NC(=O)[C@H](CC(C)C)NC(=O)[C@H](CCCCN)NC(=O)[C@H](C(C)C)NC(=O)[C@H](CCCCN)NC(=O)[C@@H](CC(C)C)NC(=O)[C@@H]2CCCN2C(=O)[C@@H](Cc2ccc(O)cc2)NC(=O)[C@H](C(C)C)NC(=O)[C@H](CCCCN)NC1=O [GS14L8] | 3.1 µg/mL | 6.2 µg/mL | 6.2 µg/mL |  | 6.2 µg/mL | 62 µM | 3.1 µg/mL | 3.1 µg/mL | 37 µg/mL | 0.8 µg/mL | 50 µg/mL | 25 µg/mL | 1.5 µg/mL |  |
| CC(C)C[C@@H]1NC(=O)[C@H](CCCCN)NC(=O)[C@H](C(C)C)NC(=O)[C@@H]2CCCN2C(=O)[C@@H](Cc2ccc(O)cc2)NC(=O)[C@H](CC(C)C)NC(=O)[C@H](CCCCN)NC(=O)[C@H](C(C)C)NC(=O)[C@H](CCCCN)NC(=O)[C@H](CC(C)C)NC(=O)[C@@H]2CCCN2C(=O)[C@@H](Cc2ccc(O)cc2)NC(=O)[C@H](C(C)C)NC(=O)[C@@H](CCCCN)NC1=O [GS14K4] | 3.1 µg/mL | 6.2 µg/mL |  |  | 4 µg/mL | 93 µM | 3.1 µg/mL | 2 µg/mL | 25 µg/mL | 1.5 µg/mL | 100 µg/mL | 50 µg/mL | 1.5 µg/mL | 25 µg/mL |
